The compounds below were run against Lysine-specific histone demethylase 1A (Homo sapiens, UniProt O60341) (assay: Demethylase Biochemical Assay: LANCE LSD1/KDM1A demethylase assay¿10 uL of 1 nM LSD-1 enzyme (ENZO BML-SE544-0050) in the assay buffer (50 mM Tris, pH 7.5, 0.01% Tween-20, 25 mM NaCl, 5 mM DTT) were preincubated for 1 hour at 25° C. with 0.8 uL compound/DMSO dotted in black 384 well polystyrene plates. Reactions were started by addition of 10 uL of assay buffer containing 0.4 uM Biotin-labeled Histone H3 peptide substrate: ART-K(Me1)-QTARKSTGGKAPRKQLA-GGK(Biotin) SEQ ID NO:1 (AnaSpec 64355) and incubated for 1 hour at 25° C. Reactions were stopped by addition of 10 uL 1x LANCE Detection Buffer (PerkinElmer CR97-100) supplemented with 1.5 nM Eu-anti-unmodified H3K4 Antibody (PerkinElmer TRF0404), and 225 nM LANCE Ultra Streptavidin (PerkinElmer TRF102) along with 0.9 mM Tranylcypromine-HCl (Millipore 616431). After stopping the reactions plates were incubated for 30 minutes and read on a PHERAstar FS plate reader (BMG Labtech).).

| SMILES | IC50 [µM] |
| --- | --- |
| COC(=O)N(C)c1ccc(-c2c(-c3ccc(C#N)cc3)nc(N3CCC(N(C)C)CC3)c3cncn23)cn1 | < 0.05 |
| COC(=O)N(C)c1ccc(-c2c(-c3ccc(C#N)cc3)nc(N3CCC(N(C)C)CC3)c3cncn23)cc1F | < 0.05 |
| COC(=O)N(C)c1ccc(-c2c(-c3ccc(C#N)cc3)cc(OC[C@@H]3CCCN(C)C3)c3cncn23)cn1 | < 0.05 |

Source: ChEMBL document CHEMBL5725310, “Substituted imidazo[1,5-α]pyridines and imidazo[1,5-α]pyrazines as LSD1 inhibitors” (2017)
